Results as given in patent US20130109643A1, “METABOLIC INHIBITOR AGAINST TUMORS HAVING AN IDH MUTATION” (The Johns Hopkins University, priority 2010, published 2013).

Legend:
[1] = test system: D54 glioblastoma cells overexpressing WT or R132H IDH1; experiment: alamarBlue cell growth assay, D54 glioblastoma lines overexpressing WT or R132H IDH1; type: cell-based, human
Method: (§1) Standard techniques were used to introduce the R132H mutation into human IDH1 engineered with a 6×-His-tag and produce lentivirus containing either WT or mutant IDH1. D54 cells or transformed normal human astrocytes (TNA) were transduced with virus, and lines were grown from individual cells using limiting dilution. IDH1 expression in response to […] doxycycline was confirmed using a 6×-His tag antibody (Millipore). Liquid chromatography/mass spectrometry was conducted as previously described. Dang L., et al., Cancer-associated IDH1 mutations produce 2-hydroxyglutarate. Nature 2009; 462:739-44. siRNA was used to knock down glutaminase, and cells were assessed for knockdown using Western blotting. Gao P., et al., c-Myc suppression of miR-23a/b enhances mitochondria/glutaminase expression and glutamine metabolism. Nature 2009; 458:762-5. Cell growth assays using alamarBlue were carried out as described following DMSO or bis-2-(5-phenylacetamido-1,2,4-thiadiazol-2-yl)ethyl sulfide (BPTES) treatment. Liolome W., et al., Glioblastoma cell growth is suppressed by disruption of Fibroblast Growth Factor pathway signaling. J Neurooncol 2009:94:359-66. […] [3H]-glutamate was isolated from the reaction mixture using anion exchange and measured using a scintillation counter. […] Data were evaluated using a two-tailed Student's t-test. P≦0.05 was considered significant.
D54 or TNA cells were transduced with virus containing WT or R132H IDH1. D54 cells were transduced using virus containing pLVCT-tTR-KRAB constructs, and TNA were transduced with virus containing Duet011 constructs. Lines were grown from individual cells using limiting dilution and tested for IDH1 expression. Expression was confirmed using Western blot and 6×-His-tag antibodies (Millipore). 0.04 μg/mL doxycycline was used to induce expression for D54 lines. Cells were maintained in DMEM, 10% FBS, 4.5 g/L glucose, and penicillin/streptomycin. Transformed normal human astrocytes (TNA) were a gift from Christopher M. Counter.
Cell growth assays using alamarBlue were carried out as described. Loilome W., et al., Glioblastoma cell growth is suppressed by disruption of Fibroblast Growth Factor pathway signaling. J Neurooncol 2009; 94(3):359-66. Cells were plated at a density of 500 cells/well in a 96-well black clear bottom plate (Becton Dickinson).

[2] = test system: primary acute myelogenous leukemia (AML) cells with mutant or wild-type IDH1; experiment: Growth curves of primary AML cells (trypan blue counting); type: cell-based, human; details: BPTES at 20 or 40 μM vs DMSO vehicle
Method: Primary AML cells were cultured in RPMI-1640 media with 20% fetal bovine serum (FBS), 20% 5637 cell-conditioned media and 1% antibiotics as previously described (Miyauchi et al., 1987). Growth curves were generated by manual counting of viable cells as assessed by trypan blue exclusion on a hemocytometer. The detail of the procedure is as following: (1) The frozen cells are thawed and added into 10 mL of the media in a tissue culture flask and grown in a humidified incubator at 37° C. and 5% CO2 for 4-5 days. Cells were counted every 24-48 h to estimate the cells needed for the experiment. […] Then, 10-20 mL media containing each desired concentration of the drug were prepared. […] By doing this, the concentration of DMSO is constant and not more than 0.1%. BPTES is precipitated in PBS, so avoid dilution with PBS. […] When the cells were well homogenized, they were counted by 1:1 trypan blue exclusion with hemocytometer. […] The starting number for each cell line among control/DMSO/drug must be the same and is calculated based on the count from the cell-containing PBS solution. […] (6) Cells were counted every other day using a hemocytometer after staining with trypan blue (1:1). […] Cells were counted in the 4 outer squares of the hemocytometer, and the number was divided by 2 (=n). […] When cell concentration was low, more grids were counted and the cell concentrations were calculated accordingly.

mutant IDH1 cells [3] = experiment: Caspase 3/7 activation assay (Caspase-Glo 3/7); type: cell-based, human; details: 10 μM BPTES, 24 hrs, vs DMSO
Method: Cells were plated at a density of 5000 cells/well in a 96-well black clear bottom plate (Becton Dickinson). 24 hrs after plating, media was changed to fresh media with or without 0.04 μg/mL doxycycline.

mutant IDH1 cells [4] = experiment: Annexin V staining (flow cytometry); type: cell-based, human; details: 10 μM BPTES, 24 hrs, vs DMSO
Method: Cells were plated at a density of 2×10^5 cells/well in a 6-well plate. Media was changed to media with or without doxycyline 24 hrs after plating.

[5] = test system: D54 cells overexpressing WT or R132H IDH1; experiment: LC/MS metabolite levels in WT and mutant IDH1 D54 cells; type: cell-based, human; details: 10 mmol/L BPTES, 48 hours
Method: as §1
3×10^5 (untreated) or 7.5×10^5 (BPTES-treated) cells were seeded in a T75 flask. 24 hrs post-plating, media on the cells was changed to 4.5 g/L glucose, 10% HyClone dialyzed FBS (ThermoScientific), penicillin/streptomycin, 4 mM glutamine and 0.04 μg/mL doxycycline to induce IDH1 expression. […] Metabolites were measured in one of two ways: using a reverse phase column with tributylamine as an ion pairing agent, Luo B., et al., Simultaneous determination of multiple intracellular metabolites in glycolysis, pentose phosphate pathway and tricarboxylic acid cycle by liquid chromatography-mass spectrometry. J Chromatogr 2007; 1147(2):153-64, coupled to a Thermo Exactive Mass Spectrometer operating at 100,000 resolving power using a mass range of ±5 ppm or single reaction monitoring on a Thermo TSQ Quantum Triple Quadrupole Mass Spectrometer coupled to an aminopropyl HPLC column. Bajad S. U., et al., Separation and quantitation of water soluble cellular metabolites by hydrophilic interaction chromatography-tandem mass spectrometry. J Chromatogr 2006; 1125(1):76-88. Signals were normalized to cell number prior to data analysis.

[6] = test system: transformed normal human astrocytes (TNA) overexpressing R132H or WT IDH1; experiment: alamarBlue cell growth assay, transformed normal human astrocytes (TNA) expressing WT or R132H IDH1; type: cell-based; details: 48 hours
Method: as §1, with “significant. […]” for “significant.”

For `NOCC(=O)O` [AOA, amino-oxyacetic acid], the “sensitivity of growth, mutant vs WT IDH1 cells” value (from here on “sensitivity … vs WT IDH1 cells”) ([1]; AOA, 1.5 g/L glucose, 48 hrs) was “more sensitive”.

With `O=C(Cc1ccccc1)Nc1nnc(CCSCCc2nnc(NC(=O)Cc3ccccc3)s2)s1` [BPTES] the “effect on growth, mutant vs WT IDH1 cells” value ([1]; D54+R132H compared with D54 and D54+WT IDH1, 48 hours) was “preferentially slowed growth of mutant IDH1 cells”, the growth reduction ([1]; mutant IDH1 D54 cells, 48 hours) was “about 20%” and the “cell killing, mIDH1 vs wild-type AML cells” value [2] was “selectively kills”. For the same molecule, the “Caspase 3/7 induction” value (mutant IDH1 cells [3]) was “does not increase”, the “Annexin V staining” value (mutant IDH1 cells [4]) was “does not increase” and the “levels of glycolytic intermediates (fructose-1,6-bisphosphate, dihydroxy-acetone-phosphate, 3-phosphoglycerate)” value [5] was “increased”. The “tricarboxylic acid cycle intermediates (succinate and malate) and aspartate levels” value [5] was “decreases”, the citrate levels ([5]; WT IDH1 cells) was “decreased” and the glutamate levels ([5]; WT and mutant IDH1 cells) was “diminished”. The α-KG levels ([5]; WT and mutant IDH1 cells) was “diminished”, the citrate levels ([5]; mutant IDH1 cells) was “increased” and the 2-HG levels ([5]; treated mutant IDH1 cells) was “remained unchanged”. For the same molecule, the “sensitivity … vs WT IDH1 cells” value [6] was “mutant IDH1 cells also were more sensitive”.

`O=C(O[C@@H]1Cc2c(O)cc(O)cc2O[C@@H]1c1cc(O)c(O)c(O)c1)c1cc(O)c(O)c(O)c1` [EGCG, epigallocatechin gallate] was tested, and the “sensitivity … vs WT IDH1 cells” value ([1]; EGCG, 0.1 g/L glucose, 72 hrs) was “more sensitive”.

With `COC(=O)CCC(=O)C(=O)OC` [dimethyl-α-ketoglutarate] the “rescue of BPTES growth inhibition at higher BPTES concentrations” value ([1]; 1 mmol/L dimethyl-α-ketoglutarate, 50 or 100 mmol/L BPTES) was “not blocked” and the “rescue of BPTES growth inhibition” value ([1]; mutant IDH1 cells, 1 mmol/L dimethyl-α-ketoglutarate added to BPTES) was “significantly reduced growth inhibition”.
